Active and inactive are the calls of the source.
Key:
[1] = inhibitors of PGC1a acetylation in cells, dose response, cell-based, cherry-picked samples (AID 720514); assay type: functional;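 further: potency may reflect raised or lowered acetylation signal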
[2] = molecular target: T1, Oxysterols receptor LXR-beta (Homo sapiens, UniProt P55055); experiment: LXR agonists, Gal4 luciferase reporter, dose response, counter-screen for ssDAF-12 agonist project, cell-based, luminescence, HEK293, S. stercoralis campaign (AID 720737); assay type: functional; settings: read-out: IC50 (the source's name)
T1 sequence (P55055 whole entry): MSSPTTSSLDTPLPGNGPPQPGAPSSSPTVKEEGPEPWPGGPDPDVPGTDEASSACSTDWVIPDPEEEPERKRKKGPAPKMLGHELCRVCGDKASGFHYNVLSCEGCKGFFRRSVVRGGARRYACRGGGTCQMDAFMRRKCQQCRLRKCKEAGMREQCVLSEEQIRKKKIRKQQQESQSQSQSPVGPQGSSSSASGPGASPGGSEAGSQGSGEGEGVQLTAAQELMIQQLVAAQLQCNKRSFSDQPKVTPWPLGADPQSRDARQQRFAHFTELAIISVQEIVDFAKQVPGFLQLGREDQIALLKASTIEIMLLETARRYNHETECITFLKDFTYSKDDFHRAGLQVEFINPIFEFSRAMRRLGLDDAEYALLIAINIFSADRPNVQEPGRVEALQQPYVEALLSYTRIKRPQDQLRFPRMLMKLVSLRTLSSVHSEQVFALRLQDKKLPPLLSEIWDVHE

[3] = Luminescence-based cell-based high throughput dose response assay to identify activators of the DAF-12 from the parasite S. stercoralis (ssDAF-12).; assay type: functional
[4] = half-maximal inhibitory concentration for glucagon-like peptide-1 release, STC-1 cell line, dose-response (AID 1117345); assay type: functional, cell-based
[5] = HeLa 2N DNA content increase, dose response, cell-based, IC50 (AID 1117349); assay type: functional
[6] = cytotoxicity toward Colo320 cells – cell-based, CellTiter-Glo luminescence, IC50, dose response (AID 1117334); assay type: functional; settings: COLO 320
[7] = Glucagon-like peptide 1 release potency, NCI-H716 cell line, dose-response, half-maximal inhibitory concentration (AID 1117344); assay type: functional, cell-based
[8] = RKO cell viability reduction, dose response, CellTiter-Glo luminescence (AID 1117322); assay type: functional
[9] = HeLa 4N DNA content increase, dose response, cell-based, IC50 (AID 1117351); assay type: functional
[10] = HCT116 cell viability decrease, GSK3B pretreatment – CellTiter-Glo, IC50, dose response (AID 1117339); assay type: functional; settings: HCT-116
[11] = Concentration-dependent survival of SW480 colon cancer line, luminescence detection with CellTiter-Glo, half-maximal inhibitory concentration (AID 1117338); assay type: functional
[12] = SNU-C1 cell viability reduction, dose response, CellTiter-Glo luminescence (AID 1117323); assay type: functional, cell-based
[13] = cytotoxicity toward HCT116 cells – cell-based, CellTiter-Glo luminescence, IC50, dose response (AID 1117332); assay type: functional; settings: HCT-116
[14] = CellTiter-Glo luminescent dose response of DLD-1 viability loss (AID 1117352); assay type: functional
[15] = cytotoxicity toward HT-29 cells – cell-based, CellTiter-Glo luminescence, IC50, dose response (AID 1117330); assay type: functional
[16] = Late-stage results from the probe development effort to identify antagonists of arginine vasopressin receptor 1a (AVPR1a): fluorescence-based cell-based dose response OXTR inhibition counterscreen assay.; assay type: functional
Vasopressin V1b receptor = Vasopressin V1b receptor (Homo sapiens, UniProt P47901); experiment: Late-stage results from the probe development effort to identify antagonists of arginine vasopressin receptor 1a (AVPR1a): fluorescence-based cell-based dose response AVPR1b inhibition counterscreen assay.; assay type: functional
[17] = Late-stage results from the probe development effort to identify antagonists of arginine vasopressin receptor 1a (AVPR1a): fluorescence-based cell-based dose response AVPR1a inhibition assay.; assay type: functional
Vasopressin V2 receptor = Vasopressin V2 receptor (Homo sapiens, UniProt P30518); experiment: Late-stage results from the probe development effort to identify antagonists of arginine vasopressin receptor 1a (AVPR1a): fluorescence-based cell-based dose response AVPR2 inhibition counterscreen assay.; assay type: functional
[18] = THP-1 cell cytotoxicity, dose response, cytotoxicity control for Vif-APOBEC3G degradation inhibitor project, THP-1 cells (AID 1117359); assay type: functional; settings: Human immunodeficiency virus 1, THP-1
Vero [19] = experiment: cells; assay type: functional; settings: Chlorocebus sabaeus
Vero [20] = experiment: host cell cytotoxicity of antiviral hits, dose response, cytotoxicity control for West Nile virus antiviral project, secondary assay (AID 1650); assay type: functional; settings: Chlorocebus sabaeus
[21] = HEp-2 cell cytotoxicity, dose response, cytotoxicity control for RSV inhibitor project, HTS (AID 2410); assay type: functional; settings: human respiratory syncytial virus
[22] = molecular target: G-protein coupled receptor 183 (Homo sapiens, UniProt P32249); experiment: SAR confirmation of small molecule antagonists of the EBI2 receptor via a luminescent beta-arrestin assa.; assay type: functional
[23] = Orthopox viral replication plaque formation Measured in Cell-Based and Microorganism Combination System Using Imaging - 2142-05_Inhibitor_Dose_DryPowder_Activity.; assay type: functional

Sequence of Vasopressin V2 receptor (P30518 whole entry): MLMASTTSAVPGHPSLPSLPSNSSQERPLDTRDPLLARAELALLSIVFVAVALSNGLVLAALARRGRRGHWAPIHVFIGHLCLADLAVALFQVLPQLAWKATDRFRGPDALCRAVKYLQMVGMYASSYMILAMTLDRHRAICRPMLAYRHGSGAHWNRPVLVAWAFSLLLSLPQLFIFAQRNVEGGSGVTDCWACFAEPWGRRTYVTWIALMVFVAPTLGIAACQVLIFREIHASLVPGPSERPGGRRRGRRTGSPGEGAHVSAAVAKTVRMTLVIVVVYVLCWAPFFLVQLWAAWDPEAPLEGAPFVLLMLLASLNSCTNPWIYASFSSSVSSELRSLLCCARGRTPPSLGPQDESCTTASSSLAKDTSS
Sequence of G-protein coupled receptor 183 (P32249 whole entry): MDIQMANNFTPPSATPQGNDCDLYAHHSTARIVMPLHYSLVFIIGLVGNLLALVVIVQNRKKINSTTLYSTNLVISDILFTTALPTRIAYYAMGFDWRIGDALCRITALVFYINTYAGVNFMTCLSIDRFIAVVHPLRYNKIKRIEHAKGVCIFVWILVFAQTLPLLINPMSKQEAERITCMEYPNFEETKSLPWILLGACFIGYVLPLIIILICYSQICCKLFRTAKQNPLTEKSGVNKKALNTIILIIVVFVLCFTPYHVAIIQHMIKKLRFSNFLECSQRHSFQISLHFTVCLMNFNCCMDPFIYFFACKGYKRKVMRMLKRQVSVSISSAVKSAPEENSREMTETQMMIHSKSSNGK
Sequence of Vasopressin V1b receptor (P47901 whole entry): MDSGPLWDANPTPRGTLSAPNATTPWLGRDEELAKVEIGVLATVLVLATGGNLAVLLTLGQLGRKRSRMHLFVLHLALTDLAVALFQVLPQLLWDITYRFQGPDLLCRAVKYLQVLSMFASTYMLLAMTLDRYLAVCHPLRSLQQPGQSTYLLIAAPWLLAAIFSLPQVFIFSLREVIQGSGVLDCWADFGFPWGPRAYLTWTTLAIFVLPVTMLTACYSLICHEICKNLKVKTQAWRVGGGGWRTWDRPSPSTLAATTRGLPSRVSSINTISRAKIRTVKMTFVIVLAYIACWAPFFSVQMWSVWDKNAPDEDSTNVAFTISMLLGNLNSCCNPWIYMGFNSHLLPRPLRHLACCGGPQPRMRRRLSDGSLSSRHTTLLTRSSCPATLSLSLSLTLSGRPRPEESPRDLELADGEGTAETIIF

N#Cc1c(N)c(C(=O)c2ccccc2)n2ccccc12
AC50 [1]: 25.7 µM (active)

COc1ccc(C(=O)c2ccccc2)cc1
EC50 [2]: > 67.6 µM (inactive)
IC50 [3]: > 67.6 µM (inactive)

Oc1ccc([C@H]2CNCc3c2ccc(O)c3O)cc1O
IC50 [4]: > 20 µM (inactive)
IC50 [5]: > 10 µM (inactive)
IC50 [6]: 0.466 µM (active)
IC50 [7]: 5.95 µM (inactive)
IC50 [8]: 0.0332 µM (active)
IC50 [9]: > 10 µM (inactive)
IC50 [10]: 0.188 µM (active)
IC50 [11]: > 20 µM (inactive)
IC50 [12]: > 20 µM (inactive)
IC50 [13]: > 20 µM (inactive)
IC50 [14]: > 20 µM (inactive)
IC50 [15]: > 20 µM (inactive)

COc1ccc(N(CC2CC2)C(=O)N2CCN(c3ccccc3C)CC2)cc1
IC50 [16]: 0.051 µM (active)
IC50 (Vasopressin V1b receptor): 5.8 µM (active)
IC50 [17]: 0.0038 µM (active)
IC50 (Vasopressin V2 receptor): 3.51 µM (active)

COc1ccc(C(=O)N/N=C/C23CC[C@@H](O)CC2(O)CC[C@@H]2[C@@H]3CCC3(C)C(C4=CC(=O)OC4)CCC23O)cc1 (stereo not given in full)
CC50 [18]: 10.4 µM (active)
CC50 (Vero [19]): 22.1 µM (active)
CC50 (Vero [20]): 43.5 µM (active)
CC50 [21]: 12.5 µM (active)

O=C(/C=C/c1ccc(Br)cc1)N1CCN(C(=O)C2CCCC2)CC1
IC50 [22]: 0.00441 µM (active)

C[C@@H](O)C#Cc1ccc2c(c1)O[C@@H](CN(C)S(=O)(=O)c1ccc(-c3ccccc3)cc1)[C@@H](C)CN([C@@H](C)CO)S2(=O)=O
AC50 [23]: 12.3 µM (active)
